In publication PMC3764026, “Adaptive Evolution of Escherichia coli to an α-Peptide/β-Peptoid Peptidomimetic Induces Stable Resistance” (PLoS ONE, 2013):
Values after ≈ are worked out from the molar mass of the structure shown. Where two headings read alike, the source gives them in different places. Positions of bridges follow the written chain, without caps; N, C: chain ends. Non-standard residues stand in square brackets, D forms with d. Residues, ends and D or L forms follow the SMILES beside them. *: point of attachment. X1 = CC[C@H](C)CCCCC(=O)*; Dab = NCC[C@H](N)C(=O)O

Columns and labels:
[1] = system: Escherichia coli ATCC 25922; format: cell-based; settings: wild-type E. coli ATCC 25922; MHB pH 7.4, 5×10^5 CFU/mL, 37°C, 18–20 h
Protocol: All experiments were performed with Escherichia coli ATCC 25922. Stock cultures of the wild-type strain and lineage isolates were stored at –80°C in 4% (w/v) glycerol, 0.5% (w/v) glucose, 2% (w/v) skimmed milk powder and 3% (w/v) tryptone soy powder. Lineage populations were frozen at –80°C in 50% (w/v) glycerol. All experiments were performed at 37°C. Experiments were carried out in cation-adjusted Mueller Hinton II broth (MHB) (Becton Dickinson 212322) adjusted to pH 7.4 or in 1% (w/v) peptone (Becton Dickinson 211677) for MIC determination of natural AMPs. Brain Heart Infusion (BHI) (CM1135) with agar (VWR 20768.292) 1.5% as gelling agent was used throughout for colony plating.
(§1) MIC was determined by using the micro-dilution method according to guidelines of the Clinical and Laboratory Standards Institute. Peptidomimetic 1 and erythromycin 1∶2 serial dilutions were prepared from 1024 µg/mL stock solutions to give a final range of 512-0.5 µg/mL in the wells. Ampicillin 1∶2 serial dilutions were prepared from a 256 µg/mL stock solution to give a final range of 128-0.13 µg/mL in the wells. Polymyxin B and gentamicin 1∶2 serial dilutions were prepared from a 64 µg/mL stock solution to give a final range of 32-0.03 µg/mL in the wells. Also, 1∶2 serial dilutions of the AMPs KR-12, IsCTp, melittin and PEP-1-K were prepared from 64 µg/mL stock solutions to give a final range of 32-0.03 µg/mL in the wells; however this was performed in 1% peptone instead of in MHB since activity was drastically diminished in the latter (not shown).
The population lineages were tested for their susceptibility towards peptidomimetic 1, polymyxin B, gentamicin and ampicillin. Single-culture isolates selected from these populations were additionally tested against peptidomimetic 1, polymyxin B, erythromycin and the five reference AMPs. To estimate the level of cross-resistance to closely related peptidomimetics, MIC determinations were performed for peptidomimetics 2 and 3 (Figure 1) towards selected isolates. […]

[2] = system: isolates from peptidomimetic 1-exposed E. coli ATCC 25922 lineages; settings: for change in MIC following acquisition of peptidomimetic resistance: isolate 2–7 vs wild type, biological duplicates; for cross-resistance: MIC as compared to the wild type: all twenty isolates from lineages no. 2 and 5, KR-12, IsCTp, melittin, PEP-1-K in 1% peptone instead of MHB
Protocol: (§2) Continuous selection of resistance was performed for peptidomimetic 1 (Figure 1) and for the clinically relevant natural antimicrobial peptide, polymyxin B. A bacterial suspension of a single colony of E. coli ATCC 25922 was re-inoculated (10 µl) five times in unsupplemented MHB (990 µl). It was then re-inoculated in MHB supplemented with peptidomimetic 1 (ten lineages) or polymyxin B (ten lineages), and after ten re-inoculations at constant peptidomimetic or polymyxin B concentration, the concentrations were doubled. […] Four lineages grown in MHB with MilliQ water were included as control. Re-inoculations were performed twice a day, but were reduced to once a day when growth was slower as assessed by turbidity of the cultures. The total number of passages (supplemented with peptidomimetic/AMP) was 77 times equivalent to approx. 500 generations. For each increase in concentration the lineages were preserved as freezing stocks. Ten colony isolates were randomly selected from each lineage population at 32×MIC and preserved as freezing stocks.
MIC was determined by using the micro-dilution method according to guidelines of the Clinical and Laboratory Standards Institute. Peptidomimetic 1 and erythromycin 1∶2 serial dilutions were prepared from 1024 µg/mL stock solutions to give a final range of 512-0.5 µg/mL in the wells. Ampicillin 1∶2 serial dilutions were prepared from a 256 µg/mL stock solution to give a final range of 128-0.13 µg/mL in the wells. Polymyxin B and gentamicin 1∶2 serial dilutions were prepared from a 64 µg/mL stock solution to give a final range of 32-0.03 µg/mL in the wells.
The population lineages were tested for their susceptibility towards peptidomimetic 1, polymyxin B, gentamicin and ampicillin. Single-culture isolates selected from these populations were additionally tested against peptidomimetic 1, polymyxin B, erythromycin and the five reference AMPs. To estimate the level of cross-resistance to closely related peptidomimetics, MIC determinations were performed for peptidomimetics 2 and 3 (Figure 1) towards selected isolates. The bacterial suspensions were grown overnight in MHB at 37°C for determination of the population MIC, or individual isolates were grown overnight on non-selective BHI agar at 37°C. […] In all experiments, bacterial cells were suspended in 0.9% saline to give a turbidity of 0.13 at OD546 (approximately 1×10^8 CFU/mL) and diluted in MHB pH 7.4 to a final concentration of 5×10^5 CFU/mL in each well. Polypropylene plates (Nunc 442587) were used to minimize peptide binding, and the incubation time was 18–20 hours at 37°C. […] MIC was found in a minimum of two technical (population MIC) or biological (isolate MIC) replicates as the lowest concentration of the AMP or antibiotic where no visible growth was observed.

[3] = system: E. coli ATCC 25922 control lineages; format: cell-based, Escherichia coli; settings: two technical duplicates
Protocol: as §2, §1
(§3) The population lineages were tested for their susceptibility towards peptidomimetic 1, polymyxin B, gentamicin and ampicillin. Single-culture isolates selected from these populations were additionally tested against peptidomimetic 1, polymyxin B, erythromycin and the five reference AMPs. To estimate the level of cross-resistance to closely related peptidomimetics, MIC determinations were performed for peptidomimetics 2 and 3 (Figure 1) towards selected isolates. The bacterial suspensions were grown overnight in MHB at 37°C for determination of the population MIC, or individual isolates were grown overnight on non-selective BHI agar at 37°C. […] In all experiments, bacterial cells were suspended in 0.9% saline to give a turbidity of 0.13 at OD546 (approximately 1×10^8 CFU/mL) and diluted in MHB pH 7.4 to a final concentration of 5×10^5 CFU/mL in each well. Polypropylene plates (Nunc 442587) were used to minimize peptide binding, and the incubation time was 18–20 hours at 37°C. Incubation time was additionally extended up to 44 hours for the individual isolates due to a potential effect of growth rate on the outcome, but no effect was seen of this (not shown). MIC was found in a minimum of two technical (population MIC) or biological (isolate MIC) replicates as the lowest concentration of the AMP or antibiotic where no visible growth was observed.
(§4) Frozen stocks were reconditioned in unsupplemented MHB media for five transfers (∼35 generations) at 37°C. The heritability of resistance was established through MIC determination of bacterial populations as described above.

[4] = system: E. coli ATCC 25922 lineages adapted to polymyxin B; format: cell-based, Escherichia coli; settings: for MIC against polymyxin after 35 generations w/o selection / MIC against polymyxin after selection: two technical duplicates; for MIC against polymyxin after selection: MHB pH 7.4, 37°C, 18–20 h
Protocol: as §2, §1, §3, §4

[5] = system: E. coli ATCC 25922 lineages adapted to peptidomimetic 1; format: cell-based, Escherichia coli; settings: for cross-resistance to conventional antibiotics: any of the lineages (peptidomimetic- and polymyxin B-exposed), population MIC, data not shown
Protocol: as §2, §1, §3, §4

[6] = system: Escherichia coli ATCC 25922; test: Continuous selection experiment; format: cell-based
Protocol: as §2

[7] = the three most resistant isolates from lineage no. 2

## CC(=O)N[C@@H](CCCCNC(=N)N)C(=O)N(CCC(=O)N[C@@H](CCCCNC(=N)N)C(=O)N(CCC(=O)N[C@@H](CCCCNC(=N)N)C(=O)N(CCC(=O)N[C@@H](CCCCNC(=N)N)C(=O)N(CCC(=O)N[C@@H](CCCCNC(=N)N)C(=O)N(CCC(=O)N[C@@H](CCCCNC(=N)N)C(=O)N(CCC(N)=O)Cc1ccccc1)Cc1ccccc1)Cc1ccccc1)Cc1ccccc1)Cc1ccccc1)Cc1ccccc1 [peptidomimetic 3]
[1]
  wt MIC: 4 µg/mL
[2]; [7]
  MIC: 32 µg/mL (≈ 15.6 µM)
  MIC levels higher than seen for the wild type strain: 8 times

## OO [hydrogen peroxide, reference compound]
[2]
  change in MIC following acquisition of peptidomimetic resistance: No changes

## CC[C@H](C)CCCCC(=O)N[C@@H](CCN)C(=O)N[C@H](C(=O)N[C@@H](CCN)C(=O)N[C@H]1CCNC(=O)[C@H]([C@@H](C)O)NC(=O)[C@H](CCN)NC(=O)[C@H](CCN)NC(=O)[C@H](CC(C)C)NC(=O)[C@@H](Cc2ccccc2)NC(=O)[C@H](CCN)NC1=O)[C@@H](C)O [polymyxin B, Polymyxin B] (X1-[Dab]T[Dab][Dab][Dab][dF]L[Dab][Dab]T; lactam 4-C (inferred); N-terminus assumed)
[2]; not shown
  cross-resistance: MIC as compared to the wild type: did not find increased MIC values
[3]; Control 1 lineage (MilliQ water)
  MIC against polymyxin after 35 generations w/o selection: 0.5 µg/mL (≈ 0.415 µM)
[3]; Control 1 lineage (MilliQ water, no polymyxin)
  MIC against polymyxin after selection: 8 µg/mL (≈ 6.65 µM)
[3]; Control 2 lineage (MilliQ water)
  MIC against polymyxin after 35 generations w/o selection: 0.5 to 1 µg/mL
[3]; Control 2 lineage (MilliQ water, no polymyxin)
  MIC against polymyxin after selection: 1 µg/mL (≈ 0.831 µM)
[4]; polymyxin B-exposed lineage 2, five passages in unsupplemented MHB
  MIC against polymyxin after 35 generations w/o selection: 32 µg/mL (≈ 26.6 µM)
[4]; polymyxin B-exposed lineage 2, population outgrown at 32×wt MIC
  MIC against polymyxin after selection: 32 µg/mL (≈ 26.6 µM)
[4]; polymyxin B-exposed lineage 3, five passages in unsupplemented MHB
  MIC against polymyxin after 35 generations w/o selection: 32 µg/mL (≈ 26.6 µM)
[4]; polymyxin B-exposed lineage 3, population outgrown at 32×wt MIC
  MIC against polymyxin after selection: 32 µg/mL (≈ 26.6 µM)
[4]; polymyxin B-exposed lineage 4, five passages in unsupplemented MHB
  MIC against polymyxin after 35 generations w/o selection: 32 µg/mL (≈ 26.6 µM)
[4]; polymyxin B-exposed lineage 4, population outgrown at 32×wt MIC
  MIC against polymyxin after selection: 32 µg/mL (≈ 26.6 µM)
[4]; polymyxin B-exposed lineage 5, five passages in unsupplemented MHB
  MIC against polymyxin after 35 generations w/o selection: 32 µg/mL (≈ 26.6 µM)
[4]; polymyxin B-exposed lineage 5, population outgrown at 32×wt MIC
  MIC against polymyxin after selection: 32 µg/mL (≈ 26.6 µM)
[4]; polymyxin B-exposed lineage 6, five passages in unsupplemented MHB
  MIC against polymyxin after 35 generations w/o selection: 32 µg/mL (≈ 26.6 µM)
[4]; polymyxin B-exposed lineage 6, population outgrown at 32×wt MIC
  MIC against polymyxin after selection: 32 µg/mL (≈ 26.6 µM)
[4]; polymyxin B-exposed lineage 8, five passages in unsupplemented MHB
  MIC against polymyxin after 35 generations w/o selection: 32 µg/mL (≈ 26.6 µM)
[4]; polymyxin B-exposed lineage 8, population outgrown at 32×wt MIC
  MIC against polymyxin after selection: 32 µg/mL (≈ 26.6 µM)
[4]; polymyxin B-exposed lineage 9, five passages in unsupplemented MHB
  MIC against polymyxin after 35 generations w/o selection: 32 µg/mL (≈ 26.6 µM)
[4]; polymyxin B-exposed lineage 9, population outgrown at 32×wt MIC
  MIC against polymyxin after selection: 32 µg/mL (≈ 26.6 µM)
[4]; polymyxin B-exposed lineage 10, five passages in unsupplemented MHB
  MIC against polymyxin after 35 generations w/o selection: 32 µg/mL (≈ 26.6 µM)
[4]; polymyxin B-exposed lineage 10, population outgrown at 32×wt MIC
  MIC against polymyxin after selection: 32 µg/mL (≈ 26.6 µM)
[4]; the eight polymyxin B-exposed lineages after selection
  increase in MIC as compared to the wild-type strain: 32 fold
[5]; peptidomimetic-exposed lineages, ~35 generations unsupplemented, became similar to controls, not shown
  cross-resistance after removal of the selection pressure: lost
[6]; ten lineages per agent, from 1/16×wt MIC, doubled stepwise, 77 inoculations, approx. 500 generations, 32×wt MIC = 256 µg/mL peptidomimetic 1, 32 µg/mL polymyxin B
  lineages that eventually grew at 32×wt MIC: eight out of ten
[6]; two controls per agent, 32 µg/mL peptidomimetic 1 or 4 µg/mL polymyxin B
  growth of unexposed control lineages at 4×wt MIC: one of the two controls

## lysozyme
[2]
  change in MIC following acquisition of peptidomimetic resistance: No changes

## protamine [reference compound]
[2]; not shown
  cross-resistance: MIC as compared to the wild type: did not find increased MIC values

## CNC(C)C1CCC(N)C(OC2C(N)CC(N)C(OC3OCC(C)(O)C(NC)C3O)C2O)O1 (centres unmarked) [gentamicin, reference compound]
[5]
  cross-resistance to conventional antibiotics: No cross-resistance

## CC[C@H]1OC(=O)[C@H](C)[C@@H](O[C@H]2C[C@@](C)(OC)[C@@H](O)[C@H](C)O2)[C@H](C)[C@@H](O[C@@H]2O[C@H](C)C[C@H](N(C)C)[C@H]2O)[C@](C)(O)C[C@@H](C)C(=O)[C@H](C)[C@@H](O)[C@]1(C)O [erythromycin, reference compound]
[2]; the five highly resistant isolates of lineage no. 2 carrying the macrolide transporter mutation, not shown
  change in susceptibility as compared to the wild type: No change

## melittin [melitin, reference compound]
[2]; not shown
  cross-resistance: MIC as compared to the wild type: did not find increased MIC values

## CC1(C)S[C@@H]2[C@H](NC(=O)[C@H](N)c3ccccc3)C(=O)N2[C@H]1C(=O)O [ampicillin, reference compound]
[5]
  cross-resistance to conventional antibiotics: No cross-resistance
